Experimental data published in patent publication US20110039762A1, “TARGETED ANTIMICROBIAL MOIETIES” (C3 JIAN, INC., priority 2009, published 2011).

Legend:
MRSA [1] = test: MIC (broth microdilution); assay type: cell-based, Methicillin-resistant Staphylococcus aureus
Procedure, shortened: (§1)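 Peptides are serially diluted 2-fold and added to Mueller-Hinton broth cultures at ˜1×10^5 cfu/mL, then incubated at 37° C. for 18-24 h.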

T. rubrum = test: MIC (broth microdilution); assay type: cell-based, Trichophyton rubrum
Description: (§2) Typically, the in vitro antimicrobial activity of antimicrobial agents is tested using standard NCCLS bacterial inhibition assays, or MIC tests (see, National Committee on Clinical Laboratory Standards “Performance Standards for Antimicrobial Susceptibility Testing,” NCCLS Document M100-S5 Vol. 14, No. 16, December 1994; “Methods for dilution antimicrobial susceptibility test for bacteria that grow aerobically-Third Edition,” Approved Standard M7-A3, National Committee for Clinical Standards, Villanova, Pa.).
(§3) Briefly, ˜1×10^5 cfu/mL bacteria were diluted in TH (S. mutans), or Mueller-Hinton (MH) broth (all other organisms) and distributed to 96-well plates. Serially-diluted (2-fold) peptides were then added and the plates incubated at 37° C. for 18-24 h. […] All experiments were conducted 10 times.

A. niger = test: MIC (broth microdilution); assay type: cell-based, Aspergillus niger
Procedure, shortened: as §1

B. subtilis [2] = test: MIC (broth microdilution); assay type: cell-based, Bacillus subtilis
Procedure, shortened: as §1

S. epidermidis [3] = assay type: cell-based, Staphylococcus epidermidis; settings: S. epidermidis
Procedure, shortened: as §1

C. albicans [4] = test: MIC (broth microdilution); assay type: cell-based, Candida albicans
Description: as §2, §3

E. faecalis [5] = test: MIC (broth microdilution); assay type: cell-based, Enterococcus faecalis
Description: as §2, §3

B. subtilis [6] = test: Kill or inhibit growth/proliferation; morphology, biofilm and growth disruption (Tables 5, 6); assay type: cell-based, Bacillus subtilis; parameters: key: A: Peptide aggregates; B: Less hyphal formation; Clumps; Diffuse clumps and small polyps; F: Diffuse growth; H: Thin; I: Growth inhibition; Microcolony formation; Rippled; Small polyps; Thick; W: Halo formation on top, microlonies on bottom; further: test concentration or dose not given here
C. jeikeium = test: as above; assay type: cell-based, Corynebacterium jeikeium; parameters: key: A: Peptide aggregates; B: Less hyphal formation; Clumps; Diffuse clumps and small polyps; F: Diffuse growth; H: Thin; I: Growth inhibition; Microcolony formation; Rippled; Small polyps; Thick; W: Halo formation on top, microlonies on bottom; further: test concentration or dose not given here
E. faecalis [7] = test: as above; assay type: cell-based, Enterococcus faecalis; parameters: key: A: Peptide aggregates; B: Less hyphal formation; Clumps; Diffuse clumps and small polyps; F: Diffuse growth; H: Thin; I: Growth inhibition; Microcolony formation; Rippled; Small polyps; Thick; W: Halo formation on top, microlonies on bottom
MRSA [8] = test: as above; assay type: cell-based, Methicillin-resistant Staphylococcus aureus; parameters: key: A: Peptide aggregates; B: Less hyphal formation; Clumps; Diffuse clumps and small polyps; F: Diffuse growth; H: Thin; I: Growth inhibition; Microcolony formation; Rippled; Small polyps; Thick; W: Halo formation on top, microlonies on bottom
S. epidermidis [9] = test: as above; assay type: cell-based, Staphylococcus epidermidis; parameters: key: A: Peptide aggregates; B: Less hyphal formation; Clumps; Diffuse clumps and small polyps; F: Diffuse growth; H: Thin; I: Growth inhibition; Microcolony formation; Rippled; Small polyps; Thick; W: Halo formation on top, microlonies on bottom
S. pneumoniae = test: as above; assay type: cell-based, Streptococcus pneumoniae; parameters: key: A: Peptide aggregates; B: Less hyphal formation; Clumps; Diffuse clumps and small polyps; F: Diffuse growth; H: Thin; I: Growth inhibition; Microcolony formation; Rippled; Small polyps; Thick; W: Halo formation on top, microlonies on bottom; further: test concentration or dose not given here
C. albicans [10] = test: as above; assay type: cell-based, Candida albicans; parameters: key: A: Peptide aggregates; B: Less hyphal formation; Clumps; Diffuse clumps and small polyps; F: Diffuse growth; H: Thin; I: Growth inhibition; Microcolony formation; Rippled; Small polyps; Thick; W: Halo formation on top, microlonies on bottom
microorganisms = test: Peptides having multiple activities (targeting/binding, antimicrobial, growth or phenotype altering)
Excerpt: In certain embodiments, peptides described herein can have multiple activities. Thus for example, a peptide can have both binding/targeting activity and antimicrobial activity. Such peptides can be used, e.g., in a chimeric construct, for any or all of these properties. Thus, for example, a peptide designated “B” in Table 8 can be used as a targeting peptide. If it is also designated G or M it can also be used for antimicrobial activity.
Wherever Organism, effect (morphology, biofilm and growth disruption) is given: test concentration or dose not given here.

MRFGSLALVAYDSAIKHSWPRPSSVRRLRM [PF-672]
MIC (MRSA [1]): MRSA , 1.56 μM
MIC (T. rubrum): T. rubrum, 0.78 μM
MIC (A. niger): A. niger, 3 μM
MIC (B. subtilis [2]): B. subtilis, 0.78 μM
MIC (S. epidermidis [3]): S. epidermidis, 0.39 μM
MIC (C. albicans [4]): C. albicans, 1.56 μM
MIC (E. faecalis [5]): E. faecalis, 3.13 μM
Organism, effect (morphology, biofilm and growth disruption) (B. subtilis [6]): B. subtilis (I)
Organism, effect (morphology, biofilm and growth disruption) (C. jeikeium): C. jeikeium (R)
Organism, effect (morphology, biofilm and growth disruption) (E. faecalis [7]): E. faecalis (I)
Organism, effect (morphology, biofilm and growth disruption) (MRSA [8]): MRSA (I)
Organism, effect (morphology, biofilm and growth disruption) (S. epidermidis [9]): S. epidermidis (I)
Organism, effect (morphology, biofilm and growth disruption) (S. pneumoniae): S. pneumoniae (I)
Organism, effect (morphology, biofilm and growth disruption) (C. albicans [10]): C. albicans (I)
Activities (microorganisms): G B M
